# Values joined by “and” are separate entries in the source; they are usually repeats but may differ in a detail not shown here. Identical values can stand only once. Like-named read-outs stand apart in the source and are kept apart here.
# Columns and labels:
# oxidized VcDsbA = biological target: T1, oxidized VcDsbA (Vibrio cholerae serotype O1, UniProt P32557); assay: biochemical; format: binding; details: for Kd: 1H-15N HSQC titration, one-site binding model, 100 μM 15N-labeled oxidized VcDsbA, 298 K, read-out: equilibrium dissociation constant (KD); for extent of chemical shift perturbations (CSP) in 1H-15N HSQC of VcDsbA: single-point addition of compound (1 mM) to VcDsbA (100 μM), compared with other hits / analogues
# T1 construct: made in house; host or cells: E. coli BL21(DE3)
# [1] = 2D [1H,1H]-NOESY; for solubility / aggregation in aqueous buffer: 298 K
# Protocol: Solubility test of benzimidazole 2 in aqueous buffer. 2D [1H,1H]-NOESY of
# benzimidazole 2 at 4 mM in D2O NMR buffer (50 mM NaPi, 25 mM NaCl, pH 6.5; 2% D6-
# [2] = biological target: T2, unlabelled oxidized VcDsbA (Vibrio cholerae serotype O1, UniProt P32557); assay: Ligand-detected 1D 19F NMR affinity estimation; format: binding; details: change in 19F chemical shift at two protein:ligand ratios, VcDsbA 10 μM
# T2 construct: made in house; host or cells: E. coli BL21(DE3)
# From the text: Residues with a CSP >0.05 ppm at the highest ligand concentration tested were mapped onto the VcDsbA structure (Figure 2C, D). The residues showing the largest CSP were localized within the hydrophobic groove, adjacent to the active site (Figure 2D). […] The K D for the VcDsbA‐benzimidazole 2 interaction was also estimated using ligand‐detected 1D ^19F‐NMR (Figure 2F). The ^19F chemical shift of the CF3 group in benzimidazole 2 has a chemical shift of −60.38 ppm in the absence of protein and was perturbed upon in a concentration‐dependent fashion upon addition of VcDsbA. The change in the chemical shift of the ^19F signal at two different protein : ligand ratios was used to estimate the K D of the interaction.[20]
# Affinity estimation from ligand‐detected ^19F NMR. The change in the resonance frequency of the single ^19F signal in the 1D ^19F NMR spectrum of benzimidazole 2 was used to estimate the binding affinity using equation 2.[43] (2) KD=γL1-L2/1-γ
# where γ is described as ΔδF1/ΔδF2 and ΔδF1 and ΔδF2 denote the changes in chemical shift of the fluorine signal of benzimidazole 2 in the absence of VcDsbA and in presence of VcDsbA (10.0 μM) at ligand concentrations of [L]1 and [L]2, respectively.
# oxidized EcDsbA [3] = biological target: T3, oxidized EcDsbA (Escherichia coli, UniProt P0AEG4); assay: biochemical; format: binding; set-up: made in house; host or cells: E. coli BL21(DE3)
# EcDsbA = details: cited from earlier work
# oxidized EcDsbA [4] = biological target: T3, oxidized EcDsbA; assay: biochemical
# Protocol: ITC was performed using a MicroCal iTC200 instrument (GE Healthcare). […] Titrations were conducted at 25 °C using 15 consecutive injections of 2.5 μL with 180 s intervals and a stirring speed of 700 rpm. […] Every interaction was tested in triplicate and the values given represent mean and standard error of mean (SEM) from these triplicate analyses.
# Isothermal Titration Calorimetry (ITC).
# EcDsbA (A)/VcDsbA (B). Each experiment was conducted in triplicate; a single replicate
# representative of the acquired ITC data is shown.
# (1 picture or pasted object on this page, not shown here)
# VcDsbA [5] = details: cited from earlier work
# VcDsbA [6] = details: cited from earlier work; remark: listed apart in the source
# T3 sequence (P0AEG4 20-208): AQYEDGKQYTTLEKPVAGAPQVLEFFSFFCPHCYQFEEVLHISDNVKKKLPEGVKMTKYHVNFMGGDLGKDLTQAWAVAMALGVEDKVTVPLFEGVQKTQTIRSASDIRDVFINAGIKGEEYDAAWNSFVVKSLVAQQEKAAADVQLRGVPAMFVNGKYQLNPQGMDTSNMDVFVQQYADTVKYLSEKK
# T1 sequence (P32557 20-200): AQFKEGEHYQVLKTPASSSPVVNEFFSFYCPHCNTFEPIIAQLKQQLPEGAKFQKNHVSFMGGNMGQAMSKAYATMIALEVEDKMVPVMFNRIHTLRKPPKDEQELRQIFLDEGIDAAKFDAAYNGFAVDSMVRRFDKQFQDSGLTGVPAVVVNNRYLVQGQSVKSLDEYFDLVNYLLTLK
# T2 sequence (P32557 20-200): as above
SMILES,Kd (oxidized VcDsbA) [µM],extent of chemical shift perturbations (CSP) in 1H-15N HSQC of VcDsbA (oxidized VcDsbA),"solubility / aggregation in aqueous buffer ([1]; 4 mM in D2O NMR buffer (50 mM NaPi, 25 mM NaCl, pH 6.5; 2% D6-DMSO; 98% D2O))","solubility / aggregation in aqueous NMR buffer ([1]; mixing time 800 ms, concentration of 2.5 mM)",Kd [2] [µM],"selectivity for VcDsbA over EcDsbA (oxidized VcDsbA; ratio of HSQC-derived KD values, VcDsbA over EcDsbA) [fold]",Kd (oxidized EcDsbA [3]) [µM],solubility / aggregation in aqueous buffer ([1]; [TC]set = 4 mM in D2O NMR buffer),Kd (EcDsbA) [µM],effect on the oxidation state of DsbA (oxidized EcDsbA [3]),Kd (oxidized EcDsbA [3]; KD),N (stoichiometry) (oxidized EcDsbA [4]),ΔH (oxidized EcDsbA [4]) [kcal/mol],ΔS (oxidized EcDsbA [4]) [cal/mol/deg],Kd (oxidized EcDsbA [4]; KD) [µM],Kd (oxidized EcDsbA [4]; association constant K) [µM],VcDsbA substrate oxidation in vivo (VcDsbA [5]),redox state of VcDsbA (VcDsbA [5]),Kd (VcDsbA [6]) [µM]
OCCCc1nc2ccc(C(F)(F)F)cc2[nH]1 [benzimidazole 1],610 ± 150,largest chemical shift perturbations,,,,,,,,,,,,,,,,,
OCCCc1nc2c(Cl)cc(C(F)(F)F)cc2[nH]1 [benzimidazole 2],446 ± 10,largest CSP,no aggregation,soluble and free from aggregation,480,~8,> 3500,,,,,,,,,,,,
"C[C@H](CCC(=O)NCCS(=O)(=O)O)[C@H]1CC[C@H]2[C@@H]3[C@H](O)C[C@@H]4C[C@H](O)CC[C@]4(C)[C@H]3C[C@H](O)[C@]12C [TC, sodium taurocholate]",,,,,,,,no aggregation,146 ± 7,no effect on the oxidation state,224 µM and ~224 µM,1,-6.551 ± 0.273,-6.11,428 ± 44,340,inhibit VcDsbA substrate oxidation in vivo,able to affect the redox state of VcDsbA,40 ± 2.5
